The source of these data is patent publication US20160159861A1, “APJ Receptor Compounds” (priority 2013, published 2016).

Like-named read-outs stand apart in the source and are kept apart here. Peptide text beside a SMILES is read from it.

Data set [1] concerns the target T1, human APJ receptor (hAPJ) (Homo sapiens, UniProt P35414).
T1 construct: expressed in transfected cells
T1 sequence (P35414 1-380): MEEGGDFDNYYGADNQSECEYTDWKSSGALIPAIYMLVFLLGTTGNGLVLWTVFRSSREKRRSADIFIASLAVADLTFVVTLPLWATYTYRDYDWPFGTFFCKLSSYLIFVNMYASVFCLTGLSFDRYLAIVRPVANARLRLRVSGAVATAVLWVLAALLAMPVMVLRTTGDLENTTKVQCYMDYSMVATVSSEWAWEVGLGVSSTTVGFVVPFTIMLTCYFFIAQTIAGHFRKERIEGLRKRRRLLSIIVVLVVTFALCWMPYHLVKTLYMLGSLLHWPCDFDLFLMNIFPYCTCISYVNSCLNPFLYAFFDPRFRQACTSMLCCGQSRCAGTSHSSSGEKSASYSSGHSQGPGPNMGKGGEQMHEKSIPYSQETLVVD
The data set is described as follows: HTRF cAMP assay: inhibition of NKH477-stimulated cAMP in HEK cells stably expressing hAPJ. Particulars: for Emax: HEK293, read-out: % IA, bound stated; for % IA (cAMP inhibition, hAPJ HEK): intrinsic activity; for Ranking: composite class of EC50 (hAPJ), % IA and % histamine or formal (+) charge; for inhibition of NKH477-stimulated increase in cAMP, dose dependent: concentration response curves, FIGS. 1 and 2, HEK cells stably expressing APJ. The data set is classed as cell-based. The source says:
HTRF cAMP Assay and IP-One Assay (Cisbio)
HTRF (homogeneous time resolved fluorescence) is a technology developed by Cisbio Bioassays based on TR-FRET (time-resolved fluorescence resonance energy transfer). Cisbio Bioassays has developed a wide selection of HTRF-based assays compatible with whole cells, thereby enabling functional assays to run under more physiological conditions. The IP-One assays are competitive immunoassays using cryptate-labeled anti-IP1 monoclonal antibody and d2-labeled IP1. IP1 is a relatively stable downstream metabolite of IP3, and accumulates in cells following Gq receptor activation.
cAMP kits based on a competitive immunoassay using cryptate-labeled anti-cAMP antibody and d2-labeled cAMP were used to assay the effects of APJ compounds of the present invention. […] Cells are treated with 1 nG/mL doxycycline and seeded in all white 96 well plates @40 k/well overnight.

The test system of a further data set is rat peritoneal cells. Briefly: Ex vivo histamine release assay in rat peritoneal cells (vs. Compound 48/80). The class given is cell-based. The source says:
More desirable pharmacological tolerability can include a decrease in an undesirable side effect (e.g., histamine release, an indicator of mast cell degranulation) without a significant loss in activity of the compound.
Screening of the variant G protein receptor compounds against a control compound for histamine release can be done following standard assays. The standard assay can include comparison to a control compound known to elicit a histamine response (e.g., 48/80 having CAS No. 94724-12-6). Such an assay using rat peritoneal cells is described herein for the APJ compounds.
Test compounds were assayed in the ex vivo histamine release assay using a 3-point dose response. Concentrations of total histamine contained in the cells is used to correct for variability in the numbers of mast cells in the lavage per well.
Resident peritoneal cells were harvested from naïve Sprague Dawley rats (male 200-300 gr, Charles River). Rats were euthanized by CO2 asphyxiation and a skin incision was made along the middle-line of the abdomen. Thirty milliliters of HBSS (HyClone, cat#SH 30268.01) containing 20 mM HEPES and 0.2% BSA (heretofore Assay Buffer) were injected intraperitoneally using a 30 mL syringe with the attached 18 gauge needle. The abdomen was gently lavaged for 1-2 min and 7-10 milliliters of the peritoneal lavage were carefully aspirated. Cell count in the peritoneal lavage was determined using Cellometer Auto T4 (Nexcelom Bioscience). The peritoneal cell count was adjusted to […] cells/mL in Assay Buffer. Rat peritoneal cells were kept at room temperature before and during the assay.
For the 10-point assay, 3-fold serial dilutions were prepared for each test compound in 100% DMSO in 96-well plates (Greiner Bio One, Ref#651261)—from 100 μM down to […]. For the 3-point assay, 10-fold serial dilutions were prepared in 100% DMSO at 100 μM, 10 μM and 1 μM concentrations. From this plate, 5 μL of compound were transferred to a new plate containing 45 μL Assay Buffer to generate a compound plate with 10× final concentrations in 10% DMSO with Assay Buffer. In the final plates, column 11 contained 1% DMSO for the low-histamine-releasing control.
Suspensions of the rat peritoneal cells (90 μL of 2.75×10^5 cells/mL; →25,000 cells per well) were introduced into each well of a new 96-well microtiter plate (Greiner Bio One, Ref#651261) and 10 μL aliquots of the serially diluted compounds were transferred to the cells in each well. The microtiter plate was incubated for 30 min at room temperature. Following incubation cells were spun down (500 rpm, 7 min) and supernatants were collected for further analysis. Supernatants were diluted 6 times with the assay buffer (15 μL to 75 μL, for 90 μL total) and released histamine content was determined using HTRF® Histamine assay kit (CisBio, cat#62HTMPEB). To measure the total histamine in each well, cells were lysed by addition of 15 μL 5% TritonX-100 to each well followed by incubation for 15 minutes. The plates were then spun at 3000 rpm for 5 minutes, and 10 μL of supernatant were diluted 9-fold in assay buffer (10 μL to 80 μL for 90 μL total) to make the “total” histamine plate. Histamine content was measured as described above for the “released” histamine values.
The standard positive control was Compound 48/80 (Enzo Life Sciences), a oligomeric polymer mixture produced by the condensation of N-methyl-p-methoxyphenethylamine with formaldehyde. The trimer is the most abundant in the mixture Compound 48/80 is used to promote mast cell degranulation and activates G proteins by a mechanism analogous to that of mastoparan. […] See references: T. Higashijima et al., J. Biol., Chem., 265 14176 (1990); M. Mousli et al., FEBS Lett., 259 260 (1990); K. Gietzen et al., Biochim. Biophys. Acta, 736 109 (1983); K. Gietzen, Biochem. J., 1983 216 611 and C. Bronner et al., Biochim. Biophys. Acta, 920 301(1987).

Setting [2] is: HTRF cAMP Assay, per data of Table 6.
Where [3] appears, read: HTRF cAMP Assay, per data of Table 6, read-out: EC50 (hAPJ), inhibition of cAMP production, bound stated.
Setting [4] is: Table 6, hAPJ HEK cells, NKH477-stimulated cAMP, read-out: EC50 (cAMP inhibition, hAPJ HEK).

For orientation: EC50 means the midpoint of the concentration-response curve.

As to `CCCCCCCCCCCCCCCC(=O)N[C@H](C(=O)N[C@H](C(=O)N[C@@H](Cc1ccccc1)C(=O)N[C@@H](CCC(N)=O)C(=O)N[C@@H](CO)C(=O)N[C@@H](CO)C(=O)N[C@@H](CCC(=O)O)C(=O)N[C@H](CCCCN)C(=O)N[C@@H](CCCNC(=N)N)C(=O)N[C@@H](CCCNC(=N)N)C(=O)N[C@@H](CO)C(=O)N[C@@H](C)C(=O)N[C@@H](CC(=O)O)C(=O)N[C@@H](Cc1ccccc1)C(=O)N[C@H](C(N)=O)[C@@H](C)CC)C(C)C)[C@@H](C)O` [Compound 15, Pal-TVFQSSEkRRSADFI-amide] (HELM PEPTIDE1{[CCCCCCCCCCCCCCCC(=O)[*:2]].T.V.F.Q.S.S.E.[dK].R.R.S.A.D.F.I.[am]}$$$$V2.0), the Emax in data set [1] (setting [2]) is ≥ 80%. Besides, the values for the EC50 in data set [1] (setting [3]) and in data set [1] (setting [4]) were ≤ 25 nM and 12 nM, respectively. For the same molecule, the “% IA (cAMP inhibition, hAPJ HEK)” value in data set [1] (Table 6, hAPJ HEK cells) was determined as 108%. Also, the Ranking entry in data set [1] is “***** (EC50≦25 nM (hAPJ), % IA≧80% and either % histamine≦35% or formal (+) charge≦1)”. In data set [1], the “inhibition of NKH477-stimulated increase in cAMP, dose dependent” value is recorded as “inhibited”. Further, in the data set on rat peritoneal cells, the “Histamine (% vs. 48/80)” value turned out to be 30%.

Consider `CCCCCCCCCCCCCCCC(=O)N[C@H](C(=O)N[C@H](C(=O)N[C@@H](Cc1ccccc1)C(=O)N[C@@H](CCCNC(=N)N)C(=O)N[C@@H](CO)C(=O)N[C@@H](CO)C(=O)N[C@@H](CCC(=O)O)C(=O)N[C@H](CCCCN)C(=O)N[C@@H](CCCNC(=N)N)C(=O)N[C@@H](CCCNC(=N)N)C(=O)N1CCC[C@H]1C(=O)N[C@@H](CO)C(=O)N[C@@H](C)C(=O)N[C@@H](CC(=O)O)C(=O)N[C@H](C(=O)N[C@@H](Cc1ccccc1)C(=O)N1CCC[C@H]1C(N)=O)[C@@H](C)CC)C(C)C)[C@@H](C)O` [Compound 24] (HELM PEPTIDE1{[CCCCCCCCCCCCCCCC(=O)[*:2]].T.V.F.R.S.S.E.[dK].R.R.P.S.A.D.I.F.P.[am]}$$$$V2.0), for which the Emax in data set [1] (setting [2]) was ≥ 80%. The EC50 in data set [1] (setting [3]) is ≤ 25 nM; in data set [1] (setting [4]), 13 nM. Also, in data set [1] (Table 6, hAPJ HEK cells), the “% IA (cAMP inhibition, hAPJ HEK)” value was found to be 88%. Moreover, the Ranking result in data set [1] was “**** (EC50≦25 nM (hAPJ), % IA≧80% and either % histamine>35% or formal (+) charge>1)”. The “inhibition of NKH477-stimulated increase in cAMP, dose dependent” value in data set [1] is given as “inhibited”. Further, the “Histamine (% vs. 48/80)” value in the data set on rat peritoneal cells is on record as 54%.

With `CCCCCCCCCCCCCCCC(=O)N1CCC[C@H]1C(=O)N[C@@H](CCCCNC(=O)[C@@H]1CCCN1C(=O)[C@H](Cc1ccccc1)NC(=O)[C@@H](NC(=O)[C@H](CC(=O)O)NC(=O)[C@H](C)NC(=O)[C@H](CO)NC(=O)[C@H](CCCNC(=N)N)NC(=O)[C@H](CCCNC(=N)N)NC(=O)[C@@H](CCCCN)NC(=O)[C@@H]1CCCN1C(C)=O)[C@@H](C)CC)C(=O)N[C@@H](CCCNC(=N)N)C(=O)N[C@@H](CCCNC(=N)N)C(=O)N[C@@H](CO)C(=O)N[C@@H](C)C(=O)N[C@@H](CC(=O)O)C(=O)N[C@H](C(=O)N[C@@H](Cc1ccccc1)C(=O)N1CCC[C@H]1C(N)=O)[C@@H](C)CC` [Compound 9] (HELM PEPTIDE1{[CCCCCCCCCCCCCCCC(=O)[*:2]].P.K.R.R.S.A.D.I.F.P.[am]}|PEPTIDE2{[ac].P.[dK].R.R.S.A.D.I.F.P}$PEPTIDE1,PEPTIDE2,3:R3-11:R2$$$V2.0), in data set [1] (Table 6, hAPJ HEK cells), the “% IA (cAMP inhibition, hAPJ HEK)” value was 84%. Moreover, the Ranking result in data set [1] was “** (EC50 25-50 nM (hAPJ), % IA 50-79% and either % histamine>35% or formal (+) charge>1)”. Also, the “Histamine (% vs. 48/80)” value with rat peritoneal cells is recorded as 65%.

For the molecule `CCCCCCCCCCCCCCCC(=O)N[C@H](C(=O)N[C@H](C(=O)N[C@@H](Cc1ccccc1)C(=O)N[C@@H](CCCNC(=N)N)C(=O)N[C@@H](CO)C(=O)N[C@@H](CO)C(=O)N1CCC[C@H]1C(=O)N[C@@H](CCC(=O)O)C(=O)N[C@H](CCCCN)C(=O)N[C@@H](CCCNC(=N)N)C(=O)N[C@@H](CCCNC(=N)N)C(=O)N[C@@H](CO)C(=O)N1CCC[C@H]1C(=O)N[C@@H](C)C(=O)N[C@@H](CC(=O)O)C(=O)N[C@H](C(=O)N[C@@H](Cc1ccccc1)C(N)=O)[C@@H](C)CC)C(C)C)[C@@H](C)O` [Compound 23] (HELM PEPTIDE1{[CCCCCCCCCCCCCCCC(=O)[*:2]].T.V.F.R.S.S.P.E.[dK].R.R.S.P.A.D.I.F.[am]}$$$$V2.0), the half-maximal effective concentration (EC50) in data set [1] (setting [4]) worked out at 44 nM. The “% IA (cAMP inhibition, hAPJ HEK)” value in data set [1] (Table 6, hAPJ HEK cells) is reported as 63%. Also, in data set [1], the Ranking entry is “** (EC50 25-50 nM (hAPJ), % IA 50-79% and either % histamine>35% or formal (+) charge>1)”. Further, in the data set on rat peritoneal cells, the “Histamine (% vs. 48/80)” value worked out at 67%.

`CCCCCCCCCCCCCCCC(=O)N[C@H](C(=O)N[C@H](C(=O)N[C@@H](CC(=O)O)C(=O)N[C@@H](CCCNC(=N)N)C(=O)N[C@@H](CO)C(=O)N[C@@H](CO)C(=O)N[C@@H](CCC(=O)O)C(=O)N[C@H](CCCCN)C(=O)N[C@@H](CCCNC(=N)N)C(=O)N[C@@H](CCCNC(=N)N)C(=O)N[C@@H](CO)C(=O)N[C@@H](C)C(=O)N[C@@H](CC(=O)O)C(=O)N[C@@H](Cc1ccc(CN)cc1)C(=O)N[C@@H](Cc1ccccc1)C(=O)N[C@H](C(N)=O)[C@@H](C)CC)C(C)C)[C@@H](C)O` [Compound 34, TVDRSSEkRRSAD(p-CH2NH2-Phe)FI] (HELM PEPTIDE1{[CCCCCCCCCCCCCCCC(=O)[*:2]].T.V.D.R.S.S.E.[dK].R.R.S.A.D.[NCc1ccc(C[C@H](N[*:1])C(=O)[*:2])cc1].F.I.[am]}$$$$V2.0): in data set [1] (setting [2]), the Emax fell in the range of 50 to 79%. Further, the EC50 was 25 to 50 nM in data set [1] (setting [3]) and 30 nM in data set [1] (setting [4]). Besides, the “% IA (cAMP inhibition, hAPJ HEK)” value in data set [1] (Table 6, hAPJ HEK cells) came out at 104%. For the same molecule, the Ranking result in data set [1] was “*** (EC50 25-50 nM (hAPJ), % IA 50-79% and either % histamine≦35% or formal (+) charge≦1)”.
